Data on 13 molecules can be found in patent US20070021509A1, “Phosphate transport inhibitors” (priority 2001, published 2007).

In assay [1] the test system is sodium-dependent phosphate uptake into isolated rabbit intestinal rings. The assay is described as follows: Ex vivo 33P uptake into isolated rabbit intestinal rings. Type of assay: cell-based. Also on record: concentration or dose not given beside the values. The conditions noted are these: Table 14, 15-minute incubation. As for the experimental part: For the ex vivo assay, ^33P uptake into isolated rabbit intestinal rings was measured using a modification of the method described by Crane and Mandelstam [Robert K. Crane and Paul Mandelstam “The active transport of sugars by various preparations of hamster intestine” Biochim. Biophys. Acta 45: 460-476, 1960; the contents of which are incorporated herein by reference]. Male New Zealand rabbits 2-3 kg in weight were aeuthinized by an i.v. injection of Fatal Pluse®. A midline laparotomy was performed and the duodenum from the pyloric junction to the ligament of Trietz isolated and excised. Segments of bowel were everted, cut into 2-4 mm ring-like pieces and placed into a modified Hepes-Buffered Ringer's solution in which Na^+ had been iso-osmotically replaced with N-methyl-D-glucamine. To measure phosphate uptake, six rings were incubated in a 50 ml conical tube containing a 10 ml volume of Ringer's solution, with or without Na^+, bubbled with 100% O2 and maintained at 37° C. 0.5 uCi/ml ^33P was then incubated with the rings for a 15-minute period, the tissue harvested, rinsed, blotted dry and weighed. Tissues were then solublized by digesting them in a 5 ml volume of Solvable® tissue solubilizer overnight at 50° C. and ^33P levels determined by scintillation counting. Sodium-dependent uptake of ^33P was calculated by determining the difference in uptake between rings incubated in the presence and absence of Na^+ in the Hepes-Buffered Ringer's solution. Results are reported as the percentage inhibition of phosphate and glucose uptake, respectively.

In assay [2] the test system is phosphate uptake by rabbit intestinal Brush Border Membrane Vesicles (BBMV). The assay is described as follows: 33PO4 uptake in rabbit intestinal BBMV (HTS), phosphate transporter inhibition in vitro. Type of assay: biochemical. Conditions: Table 14, in vitro, read-out: Phosphate Transport IC50. A digest of the protocol:
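BBMV from duodenal mucosa of male New Zealand White rabbits, diluted to about 0.5-2.0 mg/mL protein. Uptake buffers carried 33PO4 at 200,000 CPM/19 μL. Controls: Na uptake buffer (max), plus 100 μM KH2PO4 pH 7.4 (mid), K uptake buffer (min).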

Molecules are shown by their SMILES. pIC50: −log10 of the molar value.

Usually pIC50 stands for the negative decadic logarithm of the IC50, by convention in mol/L. `COc1ccccc1CNC(=O)c1cc(Br)ccc1NS(=O)(=O)c1ccc(OC(F)(F)F)cc1` [Example 70, 5-Bromo-N-(2-methoxy-benzyl)-2-(4-trifluoromethoxy-benzenesulfonylamino)-benzamide]: the “% Phosphate Transport Inhibition” value in assay [1] is given as 48%. In addition, the pIC50 in assay [2] is 5.20.
Turning to `O=C(NCc1ccc(F)cc1)c1cc(Br)ccc1NS(=O)(=O)c1ccc(OC(F)(F)F)cc1` [Example 71, 5-Bromo-N-(4-fluoro-benzyl)-2-(4-trifluoromethoxy-benzenesulfonylamino)-benzamide], the “% Phosphate Transport Inhibition” value in assay [1] amounted to 53%. The pIC50 in assay [2] is 4.89.
Taken in the same sequence, the figures for `O=C(NCc1ccc(OC(F)(F)F)cc1O)c1cc(Br)ccc1NS(=O)(=O)c1ccc(OC(F)(F)F)cc1` [Example 75, 5-Bromo-N-(2-hydroxy-4-trifluoromethoxy-benzyl)-2-(4-trifluoromethoxy-benzenesulfonylamino)-benzamide] were 56% and 5.28.
On the same counts, the results for `COc1ccc(F)cc1CNC(=O)c1cc(Br)ccc1NS(=O)(=O)c1ccc(OC(F)(F)F)cc1` [Example 78, 5-Bromo-N-(5-fluoro-2-methoxy-benzyl)-2-(4-trifluoromethoxy-benzenesulfonylamino)-benzamide] are 45% and 5.11.
On the same counts, the results for `O=C(Nc1cccc(C(F)(F)F)c1)Nc1cccc(C(F)(F)F)c1` [Example 82, 1,3Bis(3-Trifluoromethylphenyl)urea] are 25% and 4.96.
For the molecule `O=C(Nc1cc(C(F)(F)F)cc(C(F)(F)F)c1)NC1CCCCC1` [Example 83, 1-Cyclohexyl-3-(3,5-Bistrifluoromethyl-phenyl)-urea], the “% Phosphate Transport Inhibition” value in assay [1] amounted to 76%. Further, the negative logarithm of the IC50 (pIC50) in assay [2] was 5.11.
On the same counts, the results for `Cn1nc(C(C)(C)C)cc1C(=O)Nc1ccc(C(F)(F)F)cc1` [Example 84, 5-tert-Butyl-2-methyl-2H-pyrazole-3-carboxylic acid (4-trifluoromethyl-phenyl)-amide] are 41% and 4.96.
Taken in the same sequence, the figures for `O=C(Nc1cccc(C(F)(F)F)c1)Nc1cc(Cl)ccc1Cl` [Example 85, 1-(2,5-Dichloro-phenyl)-3-(3-trifluoromethyl-phenyl)-urea] were 58% and 5.00.
With `O=C(Nc1cccc(C(F)(F)F)c1)Nc1ccc(F)c([N+](=O)[O-])c1` [Example 86, 1-(4-Fluoro-3-nitro-phenyl)-3-(3-trifluoromethyl-phenyl)-urea], the “% Phosphate Transport Inhibition” value in assay [1] is listed as 30%. The pIC50 in assay [2] is 5.55.
Taken in the same sequence, the figures for `Cl.N=C(Nc1ccc(Br)c(C(F)(F)F)c1)Nc1ccc(Br)c(C(F)(F)F)c1` [Example 87, N,N′-Bis-(4-bromo-3-trifluoromethyl-phenyl)-guanidine Hydrochloride] were 71% and 4.46.
On the same counts, the results for `Cl.N=C(Nc1cc(C(F)(F)F)cc(C(F)(F)F)c1)Nc1cc(C(F)(F)F)cc(C(F)(F)F)c1` [Example 88, N,N′-Bis-(3,5-bis-trifluoromethyl-phenyl)-guanidine Hydrochloride] are 60% and 4.59.
Taken in the same sequence, the figures for `Cl.N=C(Nc1ccc(Cl)c(C(F)(F)F)c1)Nc1ccc(Cl)c(C(F)(F)F)c1` [Example 89, N,N′-Bis-(4-chloro-3-trifluoromethyl-phenyl)-guanidine Hydrochloride] were 44% and 4.80.
For `Cl.N=C(Nc1ccc(C(F)(F)F)c(C(F)(F)F)c1)Nc1ccc(C(F)(F)F)c(C(F)(F)F)c1` [Example 90, N,N′-Bis-(3,4-bis-trifluoromethyl-phenyl)-guanidine Hydrochloride], the “% Phosphate Transport Inhibition” value in assay [1] is 93%. For the same molecule, in assay [2], the pIC50 is 4.77.
